According to patent publication US8093393B2, “Cationic ceramides, and analogs thereof, and their use for preventing or treating cancer” (MUSC Foundation for Research Development, priority 2004, dated 2012):
Read-outs that look alike come from different tables or passages of the source.

Columns and labels:
[1] = tested on: UM-SCC-22A xenografts; conditions: 40 mg/kg alone or plus GMZ 80 mg/kg, 24 days
Experimental: Treatment of UM-SCC-22A (hypopharynx) xenografts in SCID mice. […] Once the xenograft achieved a standard volume, the animals were randomized to receive no treatment (control), LCL-194 alone (40 mg/kg), LCL-124 alone (40 mg/kg), LCL-124 (40 mg/kg) plus GMZ (80 mg/kg), GMZ (80 mg/kg)+DOX (2 mg/kg), or 5FU plus cisplatin (25 mg/kg each). Tumors were measured every 4 days for 24 days.
The compound was further tested in an animal model of SCID mouse and UM-SCC-22A xenografts (hypopharynx). Xenograft development and treatment was carried out by standard methods. Once the xenograft achieved a standard volume, the animals were randomized to receive no treatment (control), LCL-194 alone (40 mg/kg), LCL-124 alone (40 mg/kg), LCL-124 (40 mg/kg) plus GMZ (80 mg/kg), GMZ (80 mg/kg)+DOX (2 mg/kg), or 5FU plus cisplatin (25 mg/kg each). Tumors were measured every 4 days.

[2] = BALB/c mice
Experimental: (§1) The determination of MTD, and pharmacokinetic parameters, such as clearance from the serum, and bioaccumulation in various organs, of L-t-C6-Pyr-Cer in vivo. A) MTD of L-t-C6-Pyr-Cer was determined in dose escalation studies, in which BALB/c mice were treated (by IP injections) with increasing concentrations of the compound (10-150 mg/kg), dissolved in sterile saline solution, for 24 hr. […] B and C) The levels of L-t-C6-Pyr-Cer in the serum (B) or in the vital organs (C) of the BALB/c mice were measured by LC/MS after IP injection of the compound for various time points. The experiments were performed in two independent trials as duplicates, and error bars represent standard deviations.
(§2) Animal studies. […] The maximum tolerated dose (MTD) of L-t-C6-Pyr-Cer was determined by dose escalation studies. In short, 7-week-old BALB/c mice were treated with increasing concentrations of the compound for various time intervals. Possible toxicity of the compound to the vital organs of the animals was analyzed by both gross examination, and histopathology. The accumulation of the compound in vital organs and in the serum was also determined by LC/MS as described previously Koybasi S et al. J Biol Chem 2004; 279:44311-44319).

[3] = IP 40 mg/ml
Experimental: as §1, §2

[4] = tested on: UM-SCC-22A cells; assay: MTT cell survival assay and isobologram studies; format: cell-based, human; conditions: for IC50: UM-SCC-22A, read-out: IC50, cell growth
Experimental: Human head and neck cancer cell lines UM-SCC-1 (retromolar trigone/floor of the mouth), UM-SCC-12 (primary tumor of larynx), and UM-SCC-22A cells were obtained from clinical samples. Cells were grown in DMEM containing 10% FCS and 1% penicillin/streptomycin at 37° C. in 5% CO2.
MTT cell survival assay and isobologram studies. The concentrations of agents that inhibited cell growth by 50% (IC50) were determined from cell survival plots obtained by MTT. Triplicate wells were used for each treatment. The final concentration of DMSO (a solvent for conventional ceramides, GMZ and DOX) in the growth medium was less than 0.1% (v/v) which has no effect on cell growth and survival. Pyridinium ceramides were dissolved in sterile water or growth medium. In short, after cells (5-10×10^3/well) were seeded in 96-well-plates for 24 hr, they were treated with increasing concentrations of ceramide analogs for an additional 48 or 96 hr. For combination treatments, ceramides and chemotherapeutic agents (gemcitabine (GMZ) or doxorubicin (DOX)) were added to the growth medium simultaneously during treatment. Isobologram plots were then constructed using IC50 values of the two agents alone or in combination obtained from MTT assays. A straight line joining points on x- and y-axes represent the IC50 concentrations of two agents, and the points representing the IC50 concentrations of the combination of the two agents are represented as scatter plots on the same graphs. In general, the points that fall within the left of the straight line indicate synergism. The experiments were performed as triplicates in at least 3 independent experiments.
Human head and neck cancer cell lines UM-SCC-1 (retromolar trigone/floor of the mouth), UM-SCC-14A (SCC of anterior floor of the mouth), and UM-SCC-22A (SCC of hypopharynx) cells were obtained. Cells were grown in DMEM containing 10% FCS and 1% penicillin/streptomycin at 37° C. in 5% CO2.
MTT cell survival assay and isobologram studies. The concentrations of agents that inhibited cell growth by 50% (IC50) were determined from cell survival plots obtained by MTT assays. […] In general, the points that fall within the left of the straight line indicate synergism. The experiments were performed as triplicates in at least 3 independent experiments. Error bars represent standard deviations.

[5] = tested on: UM-SCC-22A xenografts
Experimental: A) Upper Panel: In vivo therapeutic efficacy of L-t-C6-Pyr-Cer in combination with GMZ was determined in SKID mice harboring the UM-SCC-22A xenografts implanted in both flanks. The animals were treated with L-t-C6-Pyr-Cer and GMZ at 40 mg/kg/each every 4 days for 20 days. […] In these experiments, each group contained 6 mice, harboring 12 tumors, in this study. Error bars represent standard deviations, and p values were calculated. […] C) The blood counts, the levels of serum enzymes, and electrolytes were analyzed in response to L-t-C6-Pyr-Cer alone or in combination with GMZ in SKID mice.
After tumors were grown to about 200-400 mm^3 (about two weeks after implantation), the mice were treated without or with chemotherapeutic agents with intraperitoneal (IP) injection (alone or in combination) at half of their maximum tolerated doses (MTD) every 4 days for 20 days. Tumor volumes and the weights of the animals were measured before each treatment, and tumor sizes were measured at the end of the study. The endpoint was tumor rate of growth and/or tumor volume, which was calculated using the formula: length×width^2×0.52. Each experiment included at least 6 mice (which harbored two SCC tumors in flanks) per each treatment, and experiments were done at least in two independent trials.

## CCCCCCCCCCCCC/C=C/[C@H](O)[C@H](CO)NC(=O)CCCCC[n+]1ccccc1.[Br-] [LCL124, L-threo-2-N-[6′-(1″-Pyridinium)-hexanoyl]-sphingosine Bromide]
[1]
  suppression of xenograft tumor growth: can act alone or in combination with GMZ to suppress growth of chemotherapy-resistant classes of tumors
[2]; 1-4 days
  doses without any detectable toxicity: 10 to 80 mg/kg
[2]; IP
  maximum tolerated dose (MTD): 80 mg/kg
[2]; IP, 24 hr
  toxic concentrations (severe abdominal bloating, intestinal malfunction): ≥ 100 mg/kg
[2]; IP, after about 6 hr
  single dose resulting in toxicity (abdominal bloating, intestinal malfunction): 120 to 150 mg/mL
Absence of GMZ
  level in the intestines: about 120 pmol/mg protein
  level in the liver: ~100 pmol/mg protein
Absence or presence of GMZ
  fold higher level in tumors than in intestines or liver: 3-6 fold
Combined with GMZ
  level in the tumors: 3,100 pmol/mg
mouse, in vivo
  increase of level in the tumors when combined with GMZ: about 40%
Presence of GMZ
  level in the intestines: 1,000 pmol/mg protein
  level in the liver: 300 pmol/mg protein
Single agent
  accumulation in the tumor site: about 2,200 pmol/mg
[3]
  accumulation in the brain or heart: no significant accumulation
  accumulation in the kidneys: at high levels in the kidneys within 8-24 hr
  time to clearance from the serum: ≤ 4 h
[3]; 0.5 hr
  serum level: 4,500 pmol/0.1 ml serum
[3]; 2 hr
  serum level: 6,500 pmol/0.1 ml serum
[3]; after 5 min
  level in the intestines: about 600 pmol/mg protein
[3]; after 2 hr
  level in the liver: ~500 pmol/mg protein
[3]; after 24 hr
  accumulation in the lungs: some accumulation
[4]; UM-SCC-22A, 100, 250 and 500 nM with GMZ, 48 hr
  interaction with GMZ, isobologram: decreased growth synergistically
[4]; 48 hr, listed as L-t-C6-Pyr-Cer
  IC50: 1000 to 2000 nM
[4]; 48 hr, listed as L-th-C6-Pyr-Cer
  IC50: ~1000 nM
[4]; 96 hr, DMEM, listed as L-th-C6-Pyr-Cer
  IC50: ~300 nM
[5]; 40 mg/kg/each IP every 4 days for 20 days
  inhibition of HNSCC tumor growth: some inhibition of HNSCC tumor growth
[5]; about 20 parameters
  blood counts, serum enzyme activities and electrolytes: no detectable abnormalities
[5]; after completion of the study
  toxicity to vital organs, histopathology: no detectable toxicity
